This note sets out measurements from ChEMBL document CHEMBL5338706, “Discovery of a potent and selective proteolysis targeting chimera (PROTAC) degrader of NSD3 histone methyltransferase” (Eur J Med Chem, 2022).

Calls of active or inactive are those of the source. The calls are words filed in the database; no cut-off is given here.

Test [1] concerns the target T1, Histone-lysine N-methyltransferase NSD3 (Homo sapiens) (UniProt Q9BZ95).
T1 sequence (whole entry): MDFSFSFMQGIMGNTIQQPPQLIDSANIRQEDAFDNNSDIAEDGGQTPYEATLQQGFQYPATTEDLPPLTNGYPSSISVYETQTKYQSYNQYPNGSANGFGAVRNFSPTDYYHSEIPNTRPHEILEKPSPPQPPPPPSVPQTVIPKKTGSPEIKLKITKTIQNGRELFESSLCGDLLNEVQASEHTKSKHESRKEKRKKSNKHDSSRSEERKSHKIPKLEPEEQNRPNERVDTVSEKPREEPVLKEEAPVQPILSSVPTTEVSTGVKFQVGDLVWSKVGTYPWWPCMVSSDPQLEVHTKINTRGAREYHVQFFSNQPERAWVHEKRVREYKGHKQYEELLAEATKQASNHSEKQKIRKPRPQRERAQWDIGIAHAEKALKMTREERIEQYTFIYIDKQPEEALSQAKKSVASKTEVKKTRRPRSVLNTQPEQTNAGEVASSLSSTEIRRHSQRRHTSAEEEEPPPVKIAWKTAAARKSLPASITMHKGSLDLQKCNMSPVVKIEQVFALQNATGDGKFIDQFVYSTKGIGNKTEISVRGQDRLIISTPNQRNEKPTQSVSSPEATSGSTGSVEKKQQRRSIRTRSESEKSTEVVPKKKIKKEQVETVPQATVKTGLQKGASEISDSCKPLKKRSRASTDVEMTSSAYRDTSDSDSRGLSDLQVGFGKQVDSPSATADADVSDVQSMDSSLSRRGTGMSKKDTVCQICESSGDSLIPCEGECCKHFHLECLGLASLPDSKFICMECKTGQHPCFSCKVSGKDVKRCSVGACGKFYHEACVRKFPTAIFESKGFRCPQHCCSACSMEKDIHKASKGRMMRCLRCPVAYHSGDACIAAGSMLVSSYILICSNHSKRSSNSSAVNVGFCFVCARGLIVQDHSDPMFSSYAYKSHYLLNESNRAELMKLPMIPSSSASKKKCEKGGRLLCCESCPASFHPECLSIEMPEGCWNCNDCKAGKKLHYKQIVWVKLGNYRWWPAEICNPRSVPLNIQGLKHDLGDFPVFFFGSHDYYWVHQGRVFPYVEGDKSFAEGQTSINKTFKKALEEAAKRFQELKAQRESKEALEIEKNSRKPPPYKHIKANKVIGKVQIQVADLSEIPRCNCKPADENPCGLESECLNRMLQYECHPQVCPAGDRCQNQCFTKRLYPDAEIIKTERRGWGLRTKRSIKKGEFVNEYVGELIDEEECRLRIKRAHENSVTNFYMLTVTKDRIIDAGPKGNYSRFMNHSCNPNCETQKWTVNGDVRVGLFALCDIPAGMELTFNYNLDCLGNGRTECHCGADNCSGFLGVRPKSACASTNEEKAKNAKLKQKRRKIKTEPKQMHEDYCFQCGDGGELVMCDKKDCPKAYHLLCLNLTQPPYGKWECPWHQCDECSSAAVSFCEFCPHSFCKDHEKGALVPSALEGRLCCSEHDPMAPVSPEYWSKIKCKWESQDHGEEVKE
Put plainly: Induction of NSD3 degradation in human NCI-H1703 cells at 0.001 to 10 uM by Western blot analysis. The class given is cell-based. To be noted: dose 0.001-10 µM, time <= 72.0 hrs, TDE = time-dependent effect.

Test [2] deals with T2, Histone-lysine N-methyltransferase NSD2 (Homo sapiens) (UniProt O96028).
T2 sequence (whole entry): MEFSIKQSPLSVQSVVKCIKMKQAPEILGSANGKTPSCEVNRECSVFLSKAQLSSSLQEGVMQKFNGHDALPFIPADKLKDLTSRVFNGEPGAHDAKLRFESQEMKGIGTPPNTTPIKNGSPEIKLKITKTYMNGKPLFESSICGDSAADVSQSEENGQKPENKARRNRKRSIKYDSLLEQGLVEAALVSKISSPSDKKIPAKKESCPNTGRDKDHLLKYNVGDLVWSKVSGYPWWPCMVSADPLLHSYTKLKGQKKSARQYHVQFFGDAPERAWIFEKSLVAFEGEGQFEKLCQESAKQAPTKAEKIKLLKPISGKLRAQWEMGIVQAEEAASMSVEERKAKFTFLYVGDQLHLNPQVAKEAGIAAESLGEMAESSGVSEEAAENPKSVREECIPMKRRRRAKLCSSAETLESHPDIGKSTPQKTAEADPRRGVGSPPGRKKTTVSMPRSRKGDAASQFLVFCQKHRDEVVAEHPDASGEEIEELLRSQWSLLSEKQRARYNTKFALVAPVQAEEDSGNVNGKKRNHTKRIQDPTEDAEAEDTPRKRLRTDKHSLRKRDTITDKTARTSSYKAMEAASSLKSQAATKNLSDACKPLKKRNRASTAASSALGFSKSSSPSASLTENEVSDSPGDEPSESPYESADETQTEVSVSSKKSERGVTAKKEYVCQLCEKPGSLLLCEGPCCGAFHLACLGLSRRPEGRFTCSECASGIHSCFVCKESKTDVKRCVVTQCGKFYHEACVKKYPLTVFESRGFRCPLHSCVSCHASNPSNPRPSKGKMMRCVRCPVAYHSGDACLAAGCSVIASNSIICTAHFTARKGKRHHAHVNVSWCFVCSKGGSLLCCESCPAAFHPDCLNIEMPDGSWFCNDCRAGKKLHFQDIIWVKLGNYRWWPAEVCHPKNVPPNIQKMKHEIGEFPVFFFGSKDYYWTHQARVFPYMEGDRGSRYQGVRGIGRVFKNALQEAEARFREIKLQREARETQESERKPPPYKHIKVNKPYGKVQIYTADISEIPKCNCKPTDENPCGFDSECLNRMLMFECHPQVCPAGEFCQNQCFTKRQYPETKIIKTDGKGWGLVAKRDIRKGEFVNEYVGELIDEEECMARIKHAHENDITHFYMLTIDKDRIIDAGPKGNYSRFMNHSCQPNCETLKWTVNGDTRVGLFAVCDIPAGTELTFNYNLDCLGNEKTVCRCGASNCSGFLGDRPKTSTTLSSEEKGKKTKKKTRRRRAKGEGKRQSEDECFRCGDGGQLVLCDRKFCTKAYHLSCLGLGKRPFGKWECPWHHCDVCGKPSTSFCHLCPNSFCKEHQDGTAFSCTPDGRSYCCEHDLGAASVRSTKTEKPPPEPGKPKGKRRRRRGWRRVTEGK
Description: Induction of NSD2 degradation in human A549 cells at 5 to 10 uM incubated for 72 hrs by Western blot analysis. The class given is cell-based. To be noted: dose 5-10 µM.

For the next test, the system named is NCI-H1703. Description: Induction of apoptosis in human NCI-H1703 cells assessed as necrotic cells at 10 uM measured after 72 hrs by PI/Annexin-V staining based flow cytometry analysis (reference value: 2.80% ). The class given is functional. In general terms: In flow cytometry, cells or beads pass a laser one at a time.
Test [3] deals with NCI-H520. Put plainly: Induction of apoptosis in human NCI-H520 cells assessed as decrease in NSD3 protein expression at […] by measuring fold change by Western blot analysis relative to control. The class given is functional. To be noted: dose 7.5 µM.
Test [4] deals with NCI-H520. Description: Induction of apoptosis in human NCI-H520 cells assessed as decrease in Bcl-XL protein expression at 10 uM by measuring fold change by Western blot analysis relative to control. In kind it is functional. (Immunoblotting shows a protein as a band on a membrane.)

With `Cc1cc(CNCCCCCCCCCCC(=O)N[C@H](C(=O)N2C[C@H](O)C[C@H]2C(=O)N[C@@H](C)c2ccc(-c3scnc3C)cc2)C(C)(C)C)cc(C)c1-c1ncn(C)c1-c1ccnc2cc(F)ccc12`, the Activity result was “Tde” in test [1] and 16.6% in the test with NCI-H1703. The outcome in test [2] was inactive. Besides, the “fold change (FC)” value with NCI-H520 [3] is on record as 0.5; with NCI-H520 [4] it was 0.89.
